From US20110028710A1, “PROCESS FOR THE RECOVERY OF HCL FROM A DILUTE SOLUTION THEREOF AND EXTRACTANT COMPOSITION FOR USE THEREIN” (HCL CLEANTECH LTD., priority 2008, published 2011)

Legend:
[1] = analogous water-soluble acids of the prior-art strong acids; cited from earlier work
[2] = pH of 1N NaCl solution after contact with the organic acid (indirect acid strength test); settings: 1 mol acid at 0.2 molar or higher in organic solvent contacted with equivalent NaCl in 1N aqueous solution
From the text: The stronger the organic acid, the more the reaction moves in the right direction and the lower is the pH of the formed aqueous solution.

pH of the sodium chloride solution [2]	Compound	pKa [1]
–	O=C(O)c1c(Cl)ccc(Cl)c1C(=O)O [3,6-dichlorophtalic]	1.46
> 5	CCCCCCCCCCCC(=O)O [Lauric, lauric acid]	–
